From article PMC7054760, “Structural and biochemical evaluation of bisubstrate inhibitors of protein arginine N-methyltransferases PRMT1 and CARM1 (PRMT4)” (Biochemical Journal, 2020)
Positions count from the first letter of the chain named. Read-outs that look alike come from different tables or passages of the source.

T1: CARM1_135–479 (Homo sapiens, UniProt Q86X55)
T1 construct: human CARM1, residues 135 to 479; MBP (N, cleaved yes); linker and TEV site […]; (N, cleaved yes); made in house; host or cells: E. coli BL21-CodonPlus (DE3)-RIL
T1 sequence (Q86X55 135-479): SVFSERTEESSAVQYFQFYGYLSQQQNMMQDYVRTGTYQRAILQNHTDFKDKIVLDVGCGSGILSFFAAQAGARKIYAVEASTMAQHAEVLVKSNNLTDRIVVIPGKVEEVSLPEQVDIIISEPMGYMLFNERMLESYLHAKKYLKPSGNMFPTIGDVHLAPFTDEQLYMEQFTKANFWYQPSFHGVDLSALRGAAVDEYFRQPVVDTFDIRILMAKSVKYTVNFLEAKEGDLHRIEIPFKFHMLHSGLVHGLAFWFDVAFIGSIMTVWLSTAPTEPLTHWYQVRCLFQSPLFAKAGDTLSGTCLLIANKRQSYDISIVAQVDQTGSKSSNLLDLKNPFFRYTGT

T2: CARM1 N265Y (Homo sapiens, UniProt Q86X55, N265Y)
T2 sequence (Q86X55 135-479 N265Y): T1 sequence (Q86X55 135-479) with N131Y

T3: CARM1 N161E (Homo sapiens, UniProt Q86X55, N161E)
T3 sequence (Q86X55 135-479 N161E): T1 sequence (Q86X55 135-479) with N27E

T4: human CARM1 (CARM1_135–479) (Homo sapiens, UniProt Q86X55)
T4 sequence (Q86X55 135-479): T1 sequence (Q86X55 135-479)

B1: catalytic domain of human CARM1, residues 135 to 479 (domain or fragment, UniProt Q86X55 135-479, looked up)
chain: T1 sequence (Q86X55 135-479)
notes: MBP and the linker removed with TEV protease; also called CARM1_(135–479); CARM1 catalytic domain; not shown: MBP, N-terminal, cleaved

Legend:
[1] = target: T1, CARM1_135–479; assay: Radiometric methylation assay, CARM1 with H3(3–31) and [methyl-3H]-SAM; format: biochemical; conditions: 0.23 µM [3H]-SAM
Method: The reactions were initiated by addition of adenosyl-L-methionine, S-[methyl-^3H] and incubated at 30°C after mixing. After 60 min, optimised for signal to noise ratio in the linear region, each reaction mixture was transferred by pipette onto a P81 phosphocellulose paper square (PerkinElmer) and immediately immersed in a stirred solution of trichloroacetic acid (10% w/v). The phosphocellulose squares were washed for 3 × 10 min, replacing the 10% trichloroacetic acid after each wash. […] Incorporation of tritium into the histone substrate was determined by liquid scintillation counting. For each inhibition series, a no-substrate control reaction was included, which contained water in place of the histone substrate. […] These control samples were also run in duplicate.
Data were analysed in GraphPad Prism 7 and fit using non-linear regression using the ‘log(inhibitor) vs. response — variable slope (four parameters)’ function with no constraints.

[2] = target: T2, CARM1 N265Y; assay: ITC with CARM1 N265Y mutant; conditions: for N ± standard error, CARM1 N265Y / ∆H ± standard error, CARM1 N265Y / -T∆S, CARM1 N265Y / ∆G, CARM1 N265Y: ITC; for -T∆S, CARM1 N265Y / ∆G, CARM1 N265Y: calculated indirectly
Method: (§1) Data analysis was carried out using MicroCal PEAQ-ITC Analysis Software. […] The control heats of dilution were subtracted from binding experiments prior to curve fitting using a one-site binding model with fitted offset. […] Protein concentrations were determined by UV absorbance at 280 nm (with a NanoDrop 1000 v3.7) using extinction coefficients at 280 nm determined by the ExPASy ProtParam online tool. […] Inhibitor concentrations were determined as for activity assays.

[3] = target: T3, CARM1 N161E; assay: ITC with CARM1 N161E mutant; conditions: for N ± standard error, CARM1 N161E / ∆H ± standard error, CARM1 N161E / -T∆S, CARM1 N161E / ∆G, CARM1 N161E: ITC; for -T∆S, CARM1 N161E / ∆G, CARM1 N161E: calculated indirectly
Method: as §1

[4] = target: T4, human CARM1 (CARM1_135–479); assay: Isothermal titration calorimetry (ITC) with CARM1 catalytic domain; format: binding; conditions: for -T∆S, CARM1: calculated indirectly; for ∆G, CARM1: calculated indirectly from best-fit Kd and ∆H; for Binding more strongly to CARM1 over PRMT1 (as judged by ITC): ratio of Kd values PRMT1/CARM1
Method: After 20 h, cells were harvested by centrifugation, resuspended in 50 mM Tris, 300 mM NaCl, 20 mM imidazole, 5% v/v glycerol at a pH of 7.5 (buffer A), lysed by sonication, and the lysate clarified by centrifugation. […] The protein was concentrated to ∼1 mg/ml and cleaved with TEV protease to remove the MBP tag. The cleaved protein was then separated from TEV protease and the MBP tag by gel filtration (HiLoad Superdex S200 16/60 PG, GE Healthcare), fractions containing the protein concentrated and 1 mg/ml aliquots either used directly or flash frozen and stored at −80°C until further use. Approximately 0.2 mg CARM1 catalytic domain was obtained per litre of bacterial culture.
as §1

[5] = target: human PRMT1 (PRMT1_22–361) (Homo sapiens, UniProt Q99873); assay: Isothermal titration calorimetry (ITC) with PRMT1; format: binding
Method: as §1

[6] = target: the molecule itself; assay: crystal structure; CARM1(135-479) co-crystallised with small-molecule inhibitors 4, 5, 6 and 7; sitting-drop vapour diffusion, 20°C; space group P2(1)2(1)2
[7] = 320 nM CARM1, 120 µM H3(3–31), read-out: IC50 (95% confidence interval), CARM1
[8] = ITC, 25°C, read-out: Kd ± standard error, CARM1
[9] = ITC, Table 2, wild-type, read-out: Kd ± standard error from curve fitting, CARM1 WT

Sequence of human PRMT1 (PRMT1_22–361) (Q99873 32-371): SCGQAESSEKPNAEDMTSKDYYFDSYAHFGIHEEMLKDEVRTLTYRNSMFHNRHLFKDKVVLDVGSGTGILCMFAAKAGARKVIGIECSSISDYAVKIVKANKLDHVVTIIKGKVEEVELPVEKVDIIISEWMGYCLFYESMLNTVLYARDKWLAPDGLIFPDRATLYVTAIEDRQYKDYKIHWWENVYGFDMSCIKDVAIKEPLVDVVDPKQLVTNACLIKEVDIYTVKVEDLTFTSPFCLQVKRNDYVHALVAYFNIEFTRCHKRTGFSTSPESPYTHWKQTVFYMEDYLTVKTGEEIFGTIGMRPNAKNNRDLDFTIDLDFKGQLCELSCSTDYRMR

Molecule | IC50 [1, 7] | Kd [2] | N ± standard error, CARM1 N265Y [2] | ∆H ± standard error, CARM1 N265Y [2] | -T∆S, CARM1 N265Y [2] | ∆G, CARM1 N265Y [2] | Kd [3] | N ± standard error, CARM1 N161E [3] | ∆H ± standard error, CARM1 N161E [3] | -T∆S, CARM1 N161E [3] | ∆G, CARM1 N161E [3] | N (stoichiometry) ± standard error from curve fitting, CARM1 ([4]; ITC) | ∆H ± standard error from curve fitting, CARM1 ([4]; ITC) | Kd [4, 8] | Kd [4, 9] | -T∆S, CARM1 ([4]; ITC) | ∆G, CARM1 ([4]; ITC) | Binding more strongly to CARM1 over PRMT1 (as judged by ITC) [4] | also measured
NCCCN(CCCNc1ncccn1)C[C@H]1O[C@@H](n2cnc3c(N)ncnc32)[C@H](O)[C@@H]1O [Inhibitor 8] | 700 nM | 5.18 ± 1.86 µM | 0.698 ± 0.051 | -62.8 ± 8.41 kJ/mol | 32.7 kJ/mol | -30.2 kJ/mol | 1110 ± 201 nM | 0.745 ± 0.012 | -113 ± 3.79 kJ/mol | 79.2 kJ/mol | -34 kJ/mol | 0.529 ± 0.0042 | -124 ± 1.86 kJ/mol | 2300 ± 162 nM | 2300 ± 162 nM | 92.2 kJ/mol | -32.2 kJ/mol |  | 
Nc1ncnc2c1ncn2[C@@H]1O[C@H](CSCC[C@H](N)C(=O)O)[C@@H](O)[C@H]1O [SAH, S-Adenosylhomocysteine, reference compound] |  |  | 0.737 ± 0.004 | -99.1 ± 1.05 kJ/mol | 65.9 kJ/mol | -33.3 kJ/mol |  | 0.692 ± 0.0047 | -125 ± 1.84 kJ/mol | 86.1 kJ/mol | -39.3 kJ/mol | 0.549 ± 0.0086 | -147 ± 4.62 kJ/mol |  |  | 113 kJ/mol |  |  | N (stoichiometry) ± standard error from curve fitting, PRMT1 [5]: 0.485 ± 0.0037; ∆H ± standard error from curve fitting, PRMT1 ([5]; 10: competition experiment): -97.7 ± 1.4 kJ/mol; -T∆S, PRMT1 ([5]; calculated indirectly, 10: competition experiment): 62.6 kJ/mol
NCCCN(CCCNc1ccccn1)C[C@H]1O[C@@H](n2cnc3c(N)ncnc32)[C@H](O)[C@@H]1O [Inhibitor 9] | 300 nM | 3.26 ± 0.458 µM | 1.07 ± 0.035 | -61.9 ± 3.36 kJ/mol | 30.6 kJ/mol | -31.3 kJ/mol | 354 ± 34 nM | 0.914 ± 0.005 | -86.7 ± 1.17 kJ/mol | 49.9 kJ/mol | -36.8 kJ/mol | 0.529 ± 0.025 | -86.2 ± 7.42 kJ/mol | 1140 ± 411 nM | 1140 ± 411 nM | 52.3 kJ/mol | -34 kJ/mol | ~15 fold | 
Nc1ncnc2c1ncn2[C@@H]1O[C@H](CN(CCCNc2ccccn2)CC[C@H](N)C(=O)O)[C@@H](O)[C@H]1O [Inhibitor 10] |  | 143 ± 75.9 µM |  |  |  |  | 181 ± 17 nM | 1.02 ± 0.004 | -94.1 ± 0.971 kJ/mol | 55.6 kJ/mol | -38.5 kJ/mol | 0.536 ± 0.0079 | -73.1 ± 1.92 kJ/mol |  |  | 39.1 kJ/mol | -34 kJ/mol | ~40 fold | IC50 ([1]; IC50 (95% confidence interval), CARM1, 320 nM CARM1, 120 µM H3(3–31)): 800 nM; Kd ([4]; Kd ± standard error from curve fitting, CARM1 WT, ITC, Table 2, wild-type): 1110 ± 132 nM; Kd ([4]; Kd ± standard error, CARM1, ITC, 25°C): 1110 ± 132 nM
B1 |  |  |  |  |  |  |  |  |  |  |  |  |  |  |  |  |  |  | binding result [6]: binds
